Laboratory results taken from US20260159497A1, “SOLID FORMS OF A COMPLEMENT FACTOR B INHIBITOR” (Novartis Pharma AG, priority 2022, published 2026).
Like-named read-outs stand apart in the source and are kept apart here.

Columns and labels:
Type in all cases: physicochemical
[1] = Dynamic vapor sorption (DVS) mass change; details: Table 6, DVS at 40 degree C.
Source text: [table] The mass change by DVS isotherm (2 cycles 40-0-95-0-40% RH) are in the tables below. The mass change is based on the dry weight of each.

[2] = Intrinsic dissolution rate
[3] = Grinding and wet granulation
Source text: Method: Granulate was obtained in solid-state forms. […] Dry the wet-cake under vacuum or at atmospheric pressure. Evaluate solid form and degree of crystallinity by e.g. XRPD and/or DSC.

[4] = Solubility in Simulated Fluids at 37° C.; details: for solubility at 30 min / solubility at 24 h: 37 °C, thermodynamic from solid; for solubility at 30 min: read-out: Solubility (mg/mL) 30 min; for solubility at 24 h: read-out: Solubility (mg/mL) 24 h
Source text: Solubility data of Form A (S)-4-(2,2-difluoro-7-((5-methoxy-7-methyl-1H-indol-4-yl)methyl)-7-azaspiro[3.5]nonan-6-yl)benzoic acid, Form B (S)-4-(2,2-difluoro-7-((5-methoxy-7-methyl-1H-indol-4-yl)methyl)-7-azaspiro[3.5]nonan-6-yl)benzoic acid p-toluene sulfonic acid salt, Form C (S)-4-(2,2-difluoro-7-((5-methoxy-7-methyl-1H-indol-4-yl)methyl)-7-azaspiro[3.5]nonan-6-yl)benzoic acid p-toluene sulfonic acid salt, and Form D (S)-4-(2,2-difluoro-7-((5-methoxy-7-methyl-1H-indol-4-yl)methyl)-7-azaspiro[3.5]nonan-6-yl)benzoic acid hydrochloride salt in Simulated Fluids at 37° C.

[5] = Compression stability (XRPD after compression); details: 4 tons of compression for 5 min
Source text: Method: […] Afterwards, characterize the sample by XRPD to detect any change in the solid state.

[6] = Solubility in water and biorelevant buffers at 25° C.; details: for XRPD of residual solid after solubility test / pH of solubility sample (pH) / solubility at 24 h: 25° C., 24 h; for solubility at 24 h: thermodynamic from solid, read-out: Solubility (mg/mL) S
Description: Purchase sodium taurocholate (NaTC) from supplier. Account for assay. Add amount corresponding to 3 mM to PBS V1. Stir until dissolved. Equilibrate 1 h at 25° C. or 37° C. before use. Dispose after 48 h.
Purchase FaSSIF-V2 from supplier (biorelevant.com). Amount added to PBS-V1 according to Table 1. Stir until dissolved. Equilibrate 1 h at 25° C. or 37° C. before use. Dispose after 48 h.
Purchase FeSSIF-V2 from supplier (biorelevant.com). Amount added to PBS-V1 according to Table 1. Stir until dissolved. Equilibrate 1 h at 25° C. or 37° C. before use. Dispose after 48 h.

[7] = pH 2.0, 0.01 M HCl, 37° C., 100 rpm, 120 min
[8] = pH 6.5, phosphate buffer 50 mM (PBS-V1), 37° C., 100 rpm, 120 min

In the case of `COc1cc(C)c2[nH]ccc2c1CN1CCC2(C[C@H]1c1ccc(C(=O)O)cc1)CC(F)(F)C2.Cc1ccc(S(=O)(=O)O)cc1` [Form B, (S)-4-(2,2-difluoro-7-((5-methoxy-7-methyl-1H-indol-4-yl)methyl)-7-azaspiro[3.5]nonan-6-yl)benzoic acid p-toluene sulfonate], the “Mass change by DVS, 2nd Desorption (%)” value ([1]; 0% RH) is reported as −0.01%, the “Mass change by DVS, 2nd Sorption (%)” value ([1]; 0% RH) is reported as −0.01% and the “Mass change by DVS, 1st Desorption (%)” value ([1]; 10% RH) is reported as 0.97%. For the same molecule, the “Mass change by DVS, 1st Sorption (%)” value ([1]; 10% RH) was 0.96%, the “Mass change by DVS, 2nd Desorption (%)” value ([1]; 10% RH) was 0.97% and the “Mass change by DVS, 2nd Sorption (%)” value ([1]; 10% RH) was 0.95%. For the same molecule, the “Mass change by DVS, 1st Desorption (%)” value ([1]; 20% RH) was 1.61%, the “Mass change by DVS, 1st Sorption (%)” value ([1]; 20% RH) was 1.59% and the “Mass change by DVS, 2nd Desorption (%)” value ([1]; 20% RH) was 1.60%. For the same molecule, the “Mass change by DVS, 2nd Sorption (%)” value ([1]; 20% RH) was 1.59%, the “Mass change by DVS, 1st Desorption (%)” value ([1]; 30% RH) was 1.92% and the “Mass change by DVS, 1st Sorption (%)” value ([1]; 30% RH) was 1.90%. For the same molecule, the “Mass change by DVS, 2nd Desorption (%)” value ([1]; 30% RH) was 1.91%, the “Mass change by DVS, 2nd Sorption (%)” value ([1]; 30% RH) was 1.90% and the “Mass change by DVS, 1st Desorption (%)” value ([1]; 40% RH) was 2.10%. For the same molecule, the “Mass change by DVS, 1st Sorption (%)” value ([1]; 40% RH) was 2.09%, the “Mass change by DVS, 2nd Desorption (%)” value ([1]; 40% RH) was 2.09% and the “Mass change by DVS, 2nd Sorption (%)” value ([1]; 40% RH) was 2.09%. The “Mass change by DVS, 1st Sorption (%)” value ([1]; 50% RH) was 2.21%, the “Mass change by DVS, 2nd Desorption (%)” value ([1]; 50% RH) was 2.22% and the “Mass change by DVS, 1st Sorption (%)” value ([1]; 60% RH) was 2.28%. For the same molecule, the “Mass change by DVS, 2nd Desorption (%)” value ([1]; 60% RH) was 2.29%, the “Mass change by DVS, 1st Sorption (%)” value ([1]; 70% RH) was 2.34% and the “Mass change by DVS, 2nd Desorption (%)” value ([1]; 70% RH) was 2.37%. The “Mass change by DVS, 1st Sorption (%)” value ([1]; 80% RH) was 2.40%, the “Mass change by DVS, 2nd Desorption (%)” value ([1]; 80% RH) was 2.44% and the “Mass change by DVS, 1st Sorption (%)” value ([1]; 90% RH) was 2.49%. For the same molecule, the “Mass change by DVS, 2nd Desorption (%)” value ([1]; 90% RH) was 2.49%, the “Mass change by DVS, 1st Sorption (%)” value ([1]; 95% RH) was 2.52% and the “Mass change by DVS, 2nd Desorption (%)” value ([1]; 95% RH) was 2.52%. For the same molecule, the intrinsic dissolution rate ([2]; PBS-V1 (pH 6.5)) was 0.18 mg/min/cm^2, the intrinsic dissolution rate ([2]; pH 2.0, 0.01 M HCl) was 0.015 mg/min/cm^2 and the “form change after intrinsic dissolution” value [2, 7] was “(No form change)”. The intrinsic dissolution rate [2, 7] was 0.015 mg · min^−1 · cm^−2, the “form change after intrinsic dissolution” value [2, 8] was “(No form change” and the intrinsic dissolution rate [2, 8] was 0.18 mg · min^−1 · cm^−2. For the same molecule, the “crystallinity from XRPD pattern after grinding” value ([3]; after grinding) was “crystallinity decrease”, the “form change after grinding and wet granulation” value ([3]; dry grinding (2 min and 5 min) and wet granulation (water and ethanol)) was “did not lead to any form change” and the solubility at 30 min ([4]; fassif, FaSSIF, 30 min) was greater than 2 mg/mL. For the same molecule, the solubility at 30 min ([4]; fessif, FeSSIF, 30 min) was greater than 2 mg/mL, the solubility at 24 h ([4]; fessif, FeSSIF, 24 h) was greater than 2 mg/mL and the solubility at 30 min ([4]; pH 7, water, Water, initial pH 7.00, 30 min) was 0.48 mg/mL. For the same molecule, the solubility at 24 h ([4]; pH 7, water, Water, initial pH 7.00, 24 h) was 0.56 mg/mL, the “pH at 24 h” value ([4]; FaSSGF) was 1.5 and the “Solubility (mg/mL) 30 min” value ([4]; FaSSGF, 30 min) was 0.40 mg/mL. For the same molecule, the “Solubility (mg/mL) 24 h” value ([4]; FaSSGF, 24 h) was 0.54 mg/mL, the “pH at 24 h” value ([4]; FaSSIF) was 6.13 and the “Solubility (mg/mL) 24 h” value ([4]; FaSSIF, 24 h) was 0.53 (salt mg/mL. The “pH at 24 h” value ([4]; FeSSIF) was 4.87, the “pH at 24 h” value ([4]; Water, initial pH 7.00) was 3.60 and the “form change in XRPD after compression” value [5] was “no form change”. For the same molecule, the “XRPD of residual solid after solubility test” value (“XRPD of residual solid” below) ([6]; FaSSGF, pH 1.6) was “No change”, the “pH of solubility sample (pH)” value ([6]; FaSSGF, pH 1.6) was 1.77 and the “pH of solubility sample (pH)” value ([6]; PBS-V1 + 3 mM NaTC, pH 6.5) was 6.42. The “XRPD of residual solid” value ([6]; PBS-V1 + 0.3 FeSSIF-V2, pH 6.5) was “Form A”, the “pH of solubility sample (pH)” value ([6]; PBS-V1 + 0.3 FeSSIF-V2, pH 6.5) was 6.12 and the “XRPD of residual solid” value ([6]; PBS-V1 + 2.0 FeSSIF-V2, pH 6.5) was “Form A”. The “pH of solubility sample (pH)” value ([6]; PBS-V1 + 2.0 FeSSIF-V2, pH 6.5) was 6.19, the “pH of solubility sample (pH)” value ([6]; PBS-V1 + FaSSIF-V2, pH 6.5) was 6.35 and the “XRPD of residual solid” value ([6]; PBS-V1 + FeSSIF-V2, pH 6.5) was “Form A”. The “pH of solubility sample (pH)” value ([6]; PBS-V1 + FeSSIF-V2, pH 6.5) was 6.40, the solubility at 24 h ([6]; fassgf or other biorelevant, FaSSGF, pH 1.6) was 0.49 mg/mL and the solubility at 24 h ([6]; fassgf or other biorelevant, PBS-V1 + 3 mM NaTC, pH 6.5) was greater than 2 mg/mL. For the same molecule, the solubility at 24 h ([6]; fassgf or other biorelevant, PBS-V1 + 0.3 FeSSIF-V2, pH 6.5) was 0.1 mg/mL, the solubility at 24 h ([6]; fassgf or other biorelevant, PBS-V1 + 2.0 FeSSIF-V2, pH 6.5) was 0.31 mg/mL and the solubility at 24 h ([6]; PBS-V1 + FaSSIF-V2, pH 6.5) was greater than 2 mg/mL. The solubility at 24 h ([6]; PBS-V1 + FeSSIF-V2, pH 6.5) was 0.2 mg/mL, the solubility at 24 h ([6]; water) was 0.39 mg/mL and the “solubility at 24 h compared with Form A” value ([6]; water and biorelevant buffers at 25° C., all media) was “significantly increased solubility”. For the same molecule, the “pH of solubility sample (pH)” value ([6]; water) was 3.89.
